Source: PubChem BioAssay (NCI)
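Assay format: 96-well plates, 48-hour exposure. GI50 marks 50% less growth. Definition used: TGI = concentration required for complete inhibition of growth.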

How the values were obtained:
Assay in all cases: NCI-60 cell line screen, 48 h
SF-539 CNS = test system: SF-539 CNS
DU-145 prostate = test system: DU-145 prostate
HS 578T breast = test system: HS 578T breast
NCI/ADR-RES ovarian = test system: NCI/ADR-RES ovarian
MDA-MB-231 breast = test system: MDA-MB-231 breast
CAKI-1 renal = test system: CAKI-1 renal
HOP-92 NSCLC = test system: HOP-92 NSCLC
U251 CNS = test system: U251 CNS
UACC-257 melanoma = test system: UACC-257 melanoma
TK-10 renal = test system: TK-10 renal
SN12C renal = test system: SN12C renal
OVCAR-8 ovarian = test system: OVCAR-8 ovarian
IGROV1 ovarian = test system: IGROV1 ovarian
EKVX NSCLC = test system: EKVX NSCLC
RPMI-8226 leukemia = test system: RPMI-8226 leukemia
MDA-MB-435 = test system: MDA-MB-435
786-0 renal = test system: 786-0 renal
MCF7 breast = test system: MCF7 breast
COLO 205 colon = test system: COLO 205 colon
NCI-H226 lung = test system: NCI-H226 lung
ACHN renal = test system: ACHN renal
A498 renal = test system: A498 renal
M14 melanoma = test system: M14 melanoma
NCI-H23 lung = test system: NCI-H23 lung
NCI-H522 lung = test system: NCI-H522 lung
BT-549 breast = test system: BT-549 breast
HL-60(TB) leukemia = test system: HL-60(TB) leukemia
UO-31 renal = test system: UO-31 renal
OVCAR-3 ovarian = test system: OVCAR-3 ovarian
KM12 colon = test system: KM12 colon
LOX IMVI melanoma = test system: LOX IMVI melanoma
HCT-15 colon = test system: HCT-15 colon
SK-MEL-2 melanoma = test system: SK-MEL-2 melanoma
SK-OV-3 ovarian = test system: SK-OV-3 ovarian
UACC-62 melanoma = test system: UACC-62 melanoma
MALME-3M melanoma = test system: MALME-3M melanoma
SK-MEL-28 melanoma = test system: SK-MEL-28 melanoma
SK-MEL-5 melanoma = test system: SK-MEL-5 melanoma
NCI-H460 lung = test system: NCI-H460 lung
OVCAR-5 ovarian = test system: OVCAR-5 ovarian
SF-295 CNS = test system: SF-295 CNS
T-47D breast = test system: T-47D breast
SR leukemia = test system: SR leukemia
SW-620 colon = test system: SW-620 colon
MOLT-4 leukemia = test system: MOLT-4 leukemia
SNB-75 CNS = test system: SNB-75 CNS
OVCAR-4 ovarian = test system: OVCAR-4 ovarian
CCRF-CEM leukemia = test system: CCRF-CEM leukemia
PC-3 prostate = test system: PC-3 prostate
HCT-116 colon = test system: HCT-116 colon
SF-268 CNS = test system: SF-268 CNS
HOP-62 NSCLC = test system: HOP-62 NSCLC
RXF 393 renal = test system: RXF 393 renal
HT29 colon = test system: HT29 colon
SNB-19 CNS = test system: SNB-19 CNS
K-562 leukemia = test system: K-562 leukemia
A549 NSCLC = test system: A549 NSCLC

O=[N+]([O-])c1cc([N+](=O)[O-])c(NN=C(c2ccc(O)cc2)c2ccc(O)cc2)cc1Cl
GI50 (SF-539 CNS): 1750 nM | TGI (SF-539 CNS): 3130 nM | GI50 (DU-145 prostate): 1140 nM | TGI (DU-145 prostate): 2640 nM | GI50 (HS 578T breast): 742 nM | TGI (HS 578T breast): 2040 nM | GI50 (NCI/ADR-RES ovarian): 1890 nM | TGI (NCI/ADR-RES ovarian): 3890 nM | GI50 (MDA-MB-231 breast): 1740 nM | TGI (MDA-MB-231 breast): 3290 nM | GI50 (CAKI-1 renal): 1700 nM | TGI (CAKI-1 renal): 3340 nM | GI50 (HOP-92 NSCLC): 463 nM | TGI (HOP-92 NSCLC): 2480 nM | GI50 (U251 CNS): 1870 nM | TGI (U251 CNS): 3550 nM | GI50 (UACC-257 melanoma): 2170 nM | TGI (UACC-257 melanoma): 3890 nM | GI50 (TK-10 renal): 2260 nM | TGI (TK-10 renal): 4660 nM | GI50 (SN12C renal): 1780 nM | TGI (SN12C renal): 3360 nM | GI50 (OVCAR-8 ovarian): 1790 nM | TGI (OVCAR-8 ovarian): 4600 nM | GI50 (IGROV1 ovarian): 449 nM | TGI (IGROV1 ovarian): 1570 nM | GI50 (EKVX NSCLC): 2330 nM | TGI (EKVX NSCLC): 5100 nM | GI50 (RPMI-8226 leukemia): 1980 nM | TGI (RPMI-8226 leukemia): 4070 nM | GI50 (MDA-MB-435): 1820 nM | TGI (MDA-MB-435): 3600 nM | GI50 (786-0 renal): 2150 nM | TGI (786-0 renal): 4260 nM | GI50 (MCF7 breast): 1370 nM | TGI (MCF7 breast): 3300 nM | GI50 (COLO 205 colon): 2400 nM | TGI (COLO 205 colon): 5310 nM | GI50 (NCI-H226 lung): 2010 nM | TGI (NCI-H226 lung): 3840 nM | GI50 (ACHN renal): 1880 nM | TGI (ACHN renal): 3450 nM | GI50 (A498 renal): 2020 nM | TGI (A498 renal): 3640 nM | GI50 (M14 melanoma): 1830 nM | TGI (M14 melanoma): 3940 nM | GI50 (NCI-H23 lung): 1980 nM | TGI (NCI-H23 lung): 4450 nM | GI50 (NCI-H522 lung): 2000 nM | TGI (NCI-H522 lung): 4220 nM | GI50 (BT-549 breast): 2080 nM | TGI (BT-549 breast): 4460 nM | GI50 (HL-60(TB) leukemia): 684 nM | TGI (HL-60(TB) leukemia): 2420 nM | GI50 (UO-31 renal): 1760 nM | TGI (UO-31 renal): 3390 nM | GI50 (OVCAR-3 ovarian): 912 nM | TGI (OVCAR-3 ovarian): 2240 nM | GI50 (KM12 colon): 1830 nM | TGI (KM12 colon): 3730 nM | GI50 (LOX IMVI melanoma): 409 nM | TGI (LOX IMVI melanoma): 1600 nM | GI50 (HCT-15 colon): 407 nM | TGI (HCT-15 colon): 1520 nM | GI50 (SK-MEL-2 melanoma): 3060 nM | TGI (SK-MEL-2 melanoma): 10600 nM | GI50 (SK-OV-3 ovarian): 2040 nM | TGI (SK-OV-3 ovarian): 4150 nM | GI50 (UACC-62 melanoma): 1760 nM | TGI (UACC-62 melanoma): 3280 nM | GI50 (MALME-3M melanoma): 1970 nM | TGI (MALME-3M melanoma): 3980 nM | GI50 (SK-MEL-28 melanoma): 685 nM | TGI (SK-MEL-28 melanoma): 1730 nM | GI50 (SK-MEL-5 melanoma): 1470 nM | TGI (SK-MEL-5 melanoma): 2910 nM | GI50 (NCI-H460 lung): 1920 nM | TGI (NCI-H460 lung): 4000 nM | GI50 (OVCAR-5 ovarian): 2200 nM | TGI (OVCAR-5 ovarian): 4150 nM | GI50 (SF-295 CNS): 1840 nM | TGI (SF-295 CNS): 3650 nM | GI50 (T-47D breast): 572 nM | TGI (T-47D breast): 2120 nM | GI50 (SR leukemia): 1680 nM | GI50 (SW-620 colon): 348 nM | TGI (SW-620 colon): 1220 nM | GI50 (MOLT-4 leukemia): 832 nM | TGI (MOLT-4 leukemia): 3110 nM | GI50 (SNB-75 CNS): 1440 nM | TGI (SNB-75 CNS): 3080 nM | GI50 (OVCAR-4 ovarian): 1400 nM | TGI (OVCAR-4 ovarian): 2950 nM | GI50 (CCRF-CEM leukemia): 716 nM | TGI (CCRF-CEM leukemia): 2290 nM | GI50 (PC-3 prostate): 813 nM | TGI (PC-3 prostate): 2330 nM | GI50 (HCT-116 colon): 1230 nM | TGI (HCT-116 colon): 3110 nM | GI50 (SF-268 CNS): 1700 nM | TGI (SF-268 CNS): 3290 nM | GI50 (HOP-62 NSCLC): 2440 nM | TGI (HOP-62 NSCLC): 4990 nM | TGI (RXF 393 renal): 350 nM | GI50 (HT29 colon): 1540 nM | TGI (HT29 colon): 4070 nM | GI50 (SNB-19 CNS): 366 nM | TGI (SNB-19 CNS): 2300 nM | GI50 (K-562 leukemia): 4890 nM | TGI (K-562 leukemia): > 100000 nM | GI50 (A549 NSCLC): 2840 nM | TGI (A549 NSCLC): 6590 nM
